Mutagenic call data for 4 compounds are collected here from PubChem BioAssay AID1259407 (Chemical Carcinogenesis Research Information System (CCRIS), 2018).

Activity calls are given as the source filed them. No rule for the calls is given here.

In the data set the test system is CCRIS mutagenicity, Ames/micronucleus/aberration tests. The data set can be described thus: CCRIS mutagenicity studies.
Where [1] appears, read: Test System: AMES SALMONELLA TYPHIMURIUM, Strain/Indicator: TA98, Metabolic Activation: NONE, Method: STANDARD PLATE.
Setting [2] is: Test System: AMES SALMONELLA TYPHIMURIUM, Strain/Indicator: TA100, Metabolic Activation: NONE, Method: STANDARD PLATE.
Where [3] appears, read: Test System: AMES SALMONELLA TYPHIMURIUM, Strain/Indicator: TA1535, Metabolic Activation: NONE, Method: STANDARD PLATE.
[4] abbreviates: Test System: AMES SALMONELLA TYPHIMURIUM, Strain/Indicator: TA1537, Metabolic Activation: NONE, Method: STANDARD PLATE.

Take `Oc1ccc(-c2ccc(O)cc2)cc1`: the mutagenic call reads like this: (Test System: AMES SALMONELLA TYPHIMURIUM, Strain/Indicator: TA97, Metabolic Activation: NONE, Method: PREINCUBATION) “inactive; negative”; (Test System: AMES SALMONELLA TYPHIMURIUM, Strain/Indicator: TA97, Metabolic Activation: RAT, LIVER, S-9, AROCLOR 1254, Method: PREINCUBATION) “inactive; negative”; (Test System: AMES SALMONELLA TYPHIMURIUM, Strain/Indicator: TA98, Metabolic Activation: NONE, Method: PREINCUBATION) “inactive; negative”; (Test System: AMES SALMONELLA TYPHIMURIUM, Strain/Indicator: TA98, Metabolic Activation: RAT, LIVER, S-9, AROCLOR 1254, Method: PREINCUBATION) “inactive; negative”; (Test System: AMES SALMONELLA TYPHIMURIUM, Strain/Indicator: TA100, Metabolic Activation: NONE, Method: PREINCUBATION) “inactive; negative”; (Test System: AMES SALMONELLA TYPHIMURIUM, Strain/Indicator: TA100, Metabolic Activation: RAT, LIVER, S-9, AROCLOR 1254, Method: PREINCUBATION) “inactive; negative”. Also, the mutagenic call reads like this: (Test System: AMES SALMONELLA TYPHIMURIUM, Strain/Indicator: TA102, Metabolic Activation: NONE, Method: PREINCUBATION) “inactive; negative”; (Test System: AMES SALMONELLA TYPHIMURIUM, Strain/Indicator: TA102, Metabolic Activation: RAT, LIVER, S-9, AROCLOR 1254, Method: PREINCUBATION) “inactive; negative”; (Test System: AMES SALMONELLA TYPHIMURIUM, Strain/Indicator: TA104, Metabolic Activation: NONE, Method: PREINCUBATION) “inactive; negative”; (Test System: AMES SALMONELLA TYPHIMURIUM, Strain/Indicator: TA104, Metabolic Activation: RAT, LIVER, S-9, AROCLOR 1254, Method: PREINCUBATION) “inactive; negative”; (Test System: AMES SALMONELLA TYPHIMURIUM, Strain/Indicator: TA1535, Metabolic Activation: NONE, Method: PREINCUBATION) “inactive; negative”; (Test System: AMES SALMONELLA TYPHIMURIUM, Strain/Indicator: TA1535, Metabolic Activation: RAT, LIVER, S-9, AROCLOR 1254, Method: PREINCUBATION) “inactive; negative”. Besides, under “Test System: CHINESE HAMSTER V-79, Strain/Indicator: V-79/6-THIOGUANINE, Metabolic Activation: NONE”, the mutagenic call is “inactive; negative”.

As to `CC(C)=CC1C(C(=O)OC(C#N)c2cccc(Oc3ccccc3)c2)C1(C)C` (stereo not given), the mutagenic call is, setting by setting: (Test System: Ames Salmonella typhimurium, Strain/Indicator: TA98, Metabolic Activation: None, Method: Preincubation) “inactive; negative”; (Test System: Ames Salmonella typhimurium, Strain/Indicator: TA98, Metabolic Activation: Rat, liver, S-9, Method: Preincubation) “inactive; negative”; (Test System: Ames Salmonella typhimurium, Strain/Indicator: TA100, Metabolic Activation: None, Method: Preincubation) “inactive; negative”; (Test System: Ames Salmonella typhimurium, Strain/Indicator: TA100, Metabolic Activation: Rat, liver, S-9, Method: Preincubation) “inactive; negative”; (Test System: Ames Salmonella typhimurium, Strain/Indicator: TA1535, Metabolic Activation: None, Method: Preincubation) “inactive; negative”; (Test System: Ames Salmonella typhimurium, Strain/Indicator: TA1535, Metabolic Activation: Rat, liver, S-9, Method: Preincubation) “inactive; negative”. Besides, the mutagenic call by setting is: (Test System: Ames Salmonella typhimurium, Strain/Indicator: TA1537, Metabolic Activation: None, Method: Preincubation) “inactive; negative”; (Test System: Ames Salmonella typhimurium, Strain/Indicator: TA1537, Metabolic Activation: Rat, liver, S-9, Method: Preincubation) “inactive; negative”; (Test System: Ames Salmonella typhimurium, Strain/Indicator: TA1538, Metabolic Activation: None, Method: Preincubation) “inactive; negative”; (Test System: Ames Salmonella typhimurium, Strain/Indicator: TA1538, Metabolic Activation: Rat, liver, S-9, Method: Preincubation) “inactive; negative”; (Test System: E. coli, Strain/Indicator: WP-2 uvrA, Metabolic Activation: None, Method: Preincubation) “inactive; negative”; (Test System: E. coli, Strain/Indicator: WP-2 uvrA, Metabolic Activation: Rat, liver, S-9, Method: Preincubation) “inactive; negative”.

For the compound `CN(C)N=Nc1ccc(Cl)cc1`, the mutagenic call (Test System: AMES SALMONELLA TYPHIMURIUM, Strain/Indicator: G46, Metabolic Activation: RAT, LIVER, S-9, PHENOBARBITAL, Method: STANDARD PLATE) is “active; positive”; the mutagenic call (Test System: AMES SALMONELLA TYPHIMURIUM, Strain/Indicator: TA92, Metabolic Activation: MOUSE, LIVER, S-9, POLYCHLORINATED BIPHENYLS, Method: PREINCUBATION) was “inactive; negative”; the mutagenic call (Test System: AMES SALMONELLA TYPHIMURIUM, Strain/Indicator: TA92, Metabolic Activation: MOUSE, LIVER, S-9, POLYCHLORINATED BIPHENYLS, Method: STANDARD PLATE) is “inactive; negative”; the mutagenic call (Test System: AMES SALMONELLA TYPHIMURIUM, Strain/Indicator: TA92, Metabolic Activation: NONE, Method: STANDARD PLATE) is “inactive; negative”; the mutagenic call (Test System: AMES SALMONELLA TYPHIMURIUM, Strain/Indicator: TA97, Metabolic Activation: MOUSE, LIVER, S-9, POLYCHLORINATED BIPHENYLS, Method: PREINCUBATION) is “active; positive”; the mutagenic call (Test System: AMES SALMONELLA TYPHIMURIUM, Strain/Indicator: TA97, Metabolic Activation: MOUSE, LIVER, S-9, POLYCHLORINATED BIPHENYLS, Method: STANDARD PLATE) is “active; positive”. The mutagenic call was “inactive; negative” (Test System: AMES SALMONELLA TYPHIMURIUM, Strain/Indicator: TA97, Metabolic Activation: NONE, Method: STANDARD PLATE); “active; positive” (Test System: AMES SALMONELLA TYPHIMURIUM, Strain/Indicator: TA98, Metabolic Activation: MOUSE, LIVER, S-9, POLYCHLORINATED BIPHENYLS, Method: PREINCUBATION); “active; positive” (Test System: AMES SALMONELLA TYPHIMURIUM, Strain/Indicator: TA98, Metabolic Activation: MOUSE, LIVER, S-9, POLYCHLORINATED BIPHENYLS, Method: STANDARD PLATE); “active; positive” under setting [1]; “active; positive” (Test System: AMES SALMONELLA TYPHIMURIUM, Strain/Indicator: TA100, Metabolic Activation: MOUSE, LIVER, S-9, POLYCHLORINATED BIPHENYLS, Method: PREINCUBATION); “inactive; negative” (Test System: AMES SALMONELLA TYPHIMURIUM, Strain/Indicator: TA100, Metabolic Activation: MOUSE, LIVER, S-9, POLYCHLORINATED BIPHENYLS, Method: STANDARD PLATE). For the same compound, the mutagenic call reads like this: under setting [2], “inactive; negative”; (Test System: AMES SALMONELLA TYPHIMURIUM, Strain/Indicator: TA1535, Metabolic Activation: MOUSE, LIVER, S-9, POLYCHLORINATED BIPHENYLS, Method: PREINCUBATION) “active; positive”; (Test System: AMES SALMONELLA TYPHIMURIUM, Strain/Indicator: TA1535, Metabolic Activation: MOUSE, LIVER, S-9, POLYCHLORINATED BIPHENYLS, Method: STANDARD PLATE) “inactive; negative”; under setting [3], “inactive; negative”; (Test System: AMES SALMONELLA TYPHIMURIUM, Strain/Indicator: TA1537, Metabolic Activation: MOUSE, LIVER, S-9, POLYCHLORINATED BIPHENYLS, Method: PREINCUBATION) “active; positive”; (Test System: AMES SALMONELLA TYPHIMURIUM, Strain/Indicator: TA1537, Metabolic Activation: MOUSE, LIVER, S-9, POLYCHLORINATED BIPHENYLS, Method: STANDARD PLATE) “active; positive”. In addition, the mutagenic call runs as follows: under setting [4], “active; positive”; (Test System: AMES SALMONELLA TYPHIMURIUM, Strain/Indicator: TA1538, Metabolic Activation: MOUSE, LIVER, S-9, POLYCHLORINATED BIPHENYLS, Method: PREINCUBATION) “active; positive”; (Test System: AMES SALMONELLA TYPHIMURIUM, Strain/Indicator: TA1538, Metabolic Activation: MOUSE, LIVER, S-9, POLYCHLORINATED BIPHENYLS, Method: STANDARD PLATE) “active; positive”; (Test System: AMES SALMONELLA TYPHIMURIUM, Strain/Indicator: TA1538, Metabolic Activation: NONE, Method: STANDARD PLATE) “inactive; negative”.

Take `O=C(O)c1cc(Br)cc2cccnc12`: the mutagenic call was “inactive; negative” under setting [1]; “inactive; negative” (Test System: AMES SALMONELLA TYPHIMURIUM, Strain/Indicator: TA98, Metabolic Activation: RAT, LIVER, S-9, AROCLOR 1254, Method: STANDARD PLATE); “inactive; negative” under setting [2]; “inactive; negative” (Test System: AMES SALMONELLA TYPHIMURIUM, Strain/Indicator: TA100, Metabolic Activation: RAT, LIVER, S-9, AROCLOR 1254, Method: STANDARD PLATE); “inactive; negative” under setting [3]; “inactive; negative” (Test System: AMES SALMONELLA TYPHIMURIUM, Strain/Indicator: TA1535, Metabolic Activation: RAT, LIVER, S-9, AROCLOR 1254, Method: STANDARD PLATE). Moreover, the mutagenic call runs as follows: under setting [4], “inactive; negative”; (Test System: AMES SALMONELLA TYPHIMURIUM, Strain/Indicator: TA1537, Metabolic Activation: RAT, LIVER, S-9, AROCLOR 1254, Method: STANDARD PLATE) “inactive; negative”.
